system: Colon organoid; assay type: functional, Homo sapiens

**Q.** For CC(=O)c1c(NS(C)(=O)=O)c2cc(-c3ccc(Cl)cc3)c(-c3ccc(Cl)cc3Cl)nc2n(C)c1=O [MRL-CB1-NC], which “Cell Viability Ratio” value is on record?
**A.** Its value is 1.02.

**Q.** How did the “Cell Viability Ratio” value turn out when CC(C)C(=O)Nc1n[nH]c2cc(-c3cccc(NS(=O)(=O)C4CC4)c3)ccc12 was run?
**A.** Its value is 1.005.

**Q.** How did the “Cell Viability Ratio” value turn out when CCS(=O)(=O)c1cc2cc(C[C@](O)(CC(C)(C)c3ccc(F)cc3C(N)=O)C(F)(F)F)[nH]c2cn1 [BI 653048] was run?
**A.** The value was 0.9178.

**Q.** For O=C(NNS(=O)(=O)c1ccccc1)c1cc(-c2ccnnc2)ccc1F [WM-2474], which “Cell Viability Ratio” value is on record?
**A.** The value was 1.138.

**Q.** With CNC(=O)c1ccccc1Nc1cc(Nc2ccc(N3CCOCC3)cc2OC)ncc1C(F)(F)F [VS-4718] as the compound, how does the “Cell Viability Ratio” value read?
**A.** Its value is 0.4552.

**Q.** With O=C(NCc1ncc(C(F)(F)F)cc1Cl)c1ccc2c(c1)C1(CCS(=O)(=O)CC1)[C@H](C1CC1)N2S(=O)(=O)c1ccc(F)cc1 [BAY-784] as the compound, how does the “Cell Viability Ratio” value read?
**A.** The value was 0.9106.

**Q.** With Cc1noc([C@H]2C[C@@H](c3ccc(C(F)(F)F)cc3)CN(C(=O)N3CCS(=O)(=O)C3)C2)n1 [BAY-448] as the compound, how does the “Cell Viability Ratio” value read?
**A.** Its value is 0.9504.

**Q.** With Clc1cccc(-c2nnnn2Cc2cccnc2)c1Cl as the compound, how does the “Cell Viability Ratio” value read?
**A.** The value was 0.9298.

**Q.** How did the “Cell Viability Ratio” value turn out when CC(C)(C)OC(=O)N1CCCC1CNC1CCC(c2cc(F)ccc2F)(S(=O)(=O)c2ccc(Cl)cc2)CC1 (centres undefined) [GSI-NC] was run?
**A.** Its value is 0.9423.

**Q.** CO[C@H]1CC[C@H](CNc2ccc(S(=O)(=O)NC(=O)c3ccc(N4CCN(CC5=C(c6ccc(Cl)cc6)CC(C)(C)CC5)CC4)cc3Oc3cnc4[nH]ccc4c3)cc2[N+](=O)[O-])CC1 [A-1211212] was tested. Which “Cell Viability Ratio” value did it give?
**A.** Its value is 0.9488.

**Q.** How did the “Cell Viability Ratio” value turn out when CCN(Cc1ccc(Cl)cc1)c1ncc(C(=O)NCCCN2CCCC2=O)c(NC2CCCC2)n1 was run?
**A.** Its value is 1.023.

**Q.** For CCOCCn1cc(C(=O)Nc2ccc(-n3nc(-c4cccnc4)cc3C(F)(F)F)cn2)ccc1=O [BI 1935], which “Cell Viability Ratio” value is on record?
**A.** The value was 0.9955.

**Q.** Which “Cell Viability Ratio” value does the source give for Nc1nc(NCc2ccccc2)nc(-c2ccccc2CO)n1 [Ogerin] here?
**A.** Its value is 1.099.

**Q.** Nc1cnc(N2CCc3cc(S(=O)(=O)Nc4c(F)cc(Cl)cc4F)cc(N4CCCC4=O)c32)nc1 [TP-020n] was tested. Which “Cell Viability Ratio” value did it give?
**A.** The value was 1.046.
